Experimental data as given in ChEMBL document CHEMBL3600379, “Radiosynthesis and preliminary PET evaluation of glycogen synthase kinase 3β (GSK-3β) inhibitors containing [(11)C]methylsulfanyl, [(11)C]methylsulfinyl or [(11)C]methylsulfonyl groups” (Bioorg Med Chem Lett, 2015).

Legend:
Format in all cases: ADME, organism-based
Brain [1] = test: Drug uptake in brain of cold water-induced mouse stress model at 15 to 20 MBq, iv measured at 2 mins by PET image analysis; conditions: in vivo
Brain [2] = test: Drug uptake in brain of cold water-induced mouse stress model at 15 to 20 MBq, iv measured at 15 mins by PET image analysis; conditions: in vivo, 0.25 h
Brain [3] = test: Drug uptake in brain of normal mouse at 15 to 20 MBq, iv measured at 15 mins by PET image analysis; conditions: in vivo, 0.25 h
Brain [4] = test: Drug uptake in brain of cold water-induced mouse stress model at 15 to 20 MBq, iv measured at 30 mins by PET image analysis; conditions: in vivo, 0.5 h
Brain [5] = test: Drug uptake in brain of cold water-induced mouse stress model at 15 to 20 MBq, iv measured over 60 mins by PET image analysis relative to normal mouse; conditions: in vivo, 1 h
Brain [6] = test: Drug uptake in brain of normal mouse at 15 to 20 MBq, iv measured at 2 mins by PET image analysis; conditions: in vivo
Brain [7] = test: Drug uptake in brain of normal mouse at 15 to 20 MBq, iv measured at 30 mins by PET image analysis; conditions: in vivo, 0.5 h

SMILES	SUV (Brain [1])	SUV (Brain [2])	SUV (Brain [3])	Drug uptake (Brain [4])	fold change (FC) (Brain [5])	SUV (Brain [6])	Drug uptake (Brain [7])
Cc1nnc(-c2ccc3occ(-c4ccc(S[11CH3])cc4)c3c2)o1	1.5	0.7	0.3	Not Active	2	1	Not Active
Cc1nnc(-c2ccc3occ(-c4ccc([S+]([11CH3])[O-])cc4)c3c2)o1 (stereo not given)	0.8	0.3	0.3	Not Active		0.5	Not Active
Cc1nnc(-c2ccc3occ(-c4ccc(S([11CH3])(=O)=O)cc4)c3c2)o1	1.6	0.4	0.2	Not Active	2	0.7	Not Active
